Laboratory results as given in article PMC4301629 (PLoS ONE, 2015).

Tests used:
Assay type in all cases: cell-based
HEK293/EBNA cells = test: IP accumulation (IP-One HTRF) in untransduced HEK-293/EBNA cells
α1A-AR [1] = test: Ca2+ transient response (FLIPR, fluo3) in α1A-AR transduced HEK-293/EBNA cells; conditions: 100 μM Iso, α1A-AR_HEK-293/EBNA
Description: Prior to experiments, cells were transduced with baculovirus strains designed for transient expression of α1A-AR or aldehyde oxidase (negative control). This was performed by incubating cells with virus (MOI 100–150) for 3 to 4 h, followed by exchange into fresh serum free growth medium supplemented with 4 mM sodium butyrate (NaBu). Cells were grown for another 14 to 18 h and then examined for agonist-evoked responses in transient Ca^2+ release, IP accumulation or pERK activation assays. The surface receptor expression density was determined by flow cytometry via immunofluorescence labeling of an N-terminal HA epitope tag on the receptor and radioligand binding in partially purified membranes.
Cells were resuspended in Hank’s balanced salt solution (Invitrogen) supplemented with 2 mM CaCl2, 10 mM HEPES pH 7.4, 2.5 mM probenecid, plus 1g/L each of glucose and bovine serum albumin (BSA), and seeded in poly-D-lysine coated 96-well black plates with transparent bottom (Costar) at a density of 50,000 cells/0.1 mL per well. Cells were then incubated for 1 h at 37°C with an additional 0.1 mL of buffer containing 4 μM fluo3-AM that was diluted from a stock solution containing 1 mM fluo3-AM dye in DMSO with 10% pluronic acid. After dye loading incubation, plates were washed twice with 100 μL of buffer and refilled with 100 μL of assay buffer. In experiments testing the effect of antagonists, 25 μL of buffer from wells of washed cells were replaced with 25 μL of vehicle or 4× antagonist solution. Pre-incubation of ligand with dye-loaded cells proceeded for 5–30 minutes immediately prior to measurements of agonist-evoked responses. Agonist-evoked Ca^2+ mobilization responses of cell populations were monitored at room temperature simultaneously in all wells of the assay plate using the plate-imaging fluorometric reader FLIPR (MDS Analytical Technologies, Sunnyvale, CA). […] The amplitudes of Ca^2+ transient responses are reported as ΔF/F0, or fold-change in Ca^2+ dye fluorescence relative to the baseline signal ΔF/F0 = (F-F0)/F0 +1 (where ΔF is maximal fluorescence intensity observed following agonist application, F0 = baseline fluorescence, or average intensity measured over the 10 s interval prior to agonist application). Image acquisition rates were varied from 1 Hz during the first 100 s of measurements to 0.5 Hz for the remaining time of the recording.
Graphs shown reflect either pooled or representative data (see figure legends). For concentration-response analysis, results from Ca^2+ mobilization experiments were plotted as ΔF/F0 vs. agonist concentration and fit to a sigmoidal concentration-response equation using the GraphPad Prism software package. In cases where biphasic concentration-response curves were observed data were fit to a two-site concentration-response model: F(X)=R0+(Rmax−R0)[Fr1/(1+10^X-logEC50,1)+(1−Fr1)/(1+10^X-logEC50,2)] (1) , where X is the logarithm of the agonist concentration, R0 and Rmax are respectively the response minimum and maximum; Fr1 is the response fraction attributable to receptor characterized by half effective concentration of the first response phase (EC50,1), with the reminder response attributable to the second half effective concentration (EC50,2). For radioligand binding experiments, B max values were calculated from maximum binding using the equation B max = (SB × ([…] + [L])/[L]), where SB is the specific binding expressed as fmol per mg of membrane protein, and [L] is the ligand concentration.

α1A-AR [2] = molecular target: T1, α1A-AR (Homo sapiens, UniProt P35348); test: Translocation of GFP-tagged β-arrestin-1/2 in HEK293 cells expressing FLAG-α1A-AR (confocal microscopy); set-up: expressed in transfected cells; host or cells: HEK-293/EBNA (baculovirus transduction, NaBu induction); conditions: HEK293, 1 μM A-61603 or 1 mM Iso
T1 sequence (P35348 1-466): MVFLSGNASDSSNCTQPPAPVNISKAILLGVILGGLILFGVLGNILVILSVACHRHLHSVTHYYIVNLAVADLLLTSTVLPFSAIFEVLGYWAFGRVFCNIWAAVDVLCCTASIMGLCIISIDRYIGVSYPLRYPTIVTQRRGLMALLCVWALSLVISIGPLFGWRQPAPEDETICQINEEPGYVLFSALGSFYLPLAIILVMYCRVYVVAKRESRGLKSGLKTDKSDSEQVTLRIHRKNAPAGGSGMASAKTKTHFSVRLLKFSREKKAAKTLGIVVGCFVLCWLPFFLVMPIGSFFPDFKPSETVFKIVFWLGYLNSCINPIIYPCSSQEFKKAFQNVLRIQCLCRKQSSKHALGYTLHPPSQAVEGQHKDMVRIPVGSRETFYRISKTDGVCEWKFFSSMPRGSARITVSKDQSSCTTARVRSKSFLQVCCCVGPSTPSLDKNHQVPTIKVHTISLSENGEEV
Description: HEK293 cells were transiently co-transfected with FLAG-tagged α1A – AR and one of the following GFP-tagged proteins: Rab5 (Rab5 Q79L) variant, Rab11 (Rab11 S25N) variant, β-arrestin-1 or β-arrestin-2. Rab5 and Rab11 were kindly provided by Dr. Marino Zerial (Max Planck Institute of Molecular Cell Biology and Genetics, Dresden, Germany). […] After treatment, cells were fixed with freshly prepared 3.7% paraformaldehyde in PBS for 15 min at room temperature. Subsequently, cells were permeabilized with 0.1% Triton X-100 (Sigma-Aldrich) in PBS for 5 min, followed by nonspecific binding site blocking with 3% normal serum (Santa Cruz Biotechnology) in PBS for 1 h. Incubation with Alexa Fluor-568 conjugated anti-FLAG antibodies in blocking solution was done as directed by the manufacturer. Confocal microscopy was performed using a Zeiss LSM 510 META laser scanning microscope (Carl Zeiss, Inc., Thornwood, NY) equipped with a 60X objective, using the following laser wavelengths: excitation at 488 nm and emission at 505–530 nm; excitation at 543 nm and emission at 560–615 nm.
HEK293 cells were co-transfected with FLAG-tagged α1A – AR and GFP- tagged β-arrestin-1 (left panels) or β-arrestin-2 (right panels). […] Cells were then fixed, permeabilized, stained with Alexa Fluor-568 conjugated anti-FLAG antibodies, and analyzed employing confocal microscopy.

`CC(C)NCC(O)c1ccc(O)c(O)c1` (centres unmarked) [Iso, isoproterenol] was tested, and the “EC50 IP” value (HEK293/EBNA cells; HEK293/EBNA untransduced) was “BQL”, the IP formation (HEK293/EBNA cells; untransduced cells, data not shown) was “not detectable” and the “decline from peak amplitude within 100 sec” value (α1A-AR [1]) was over 75%. The “delay from addition of agonist to the rise in Ca2+” value (α1A-AR [1]) was 5 to 10 s and the “translocation of β-arrestin-1 / β-arrestin-2” value (α1A-AR [2]) was “did not cause visible β-arrestin rearrangement”.
